Test results taken from patent publication US20130245081A1, “Compositions and Methods for Treating Amyotrophic Lateral Sclerosis” (priority 2009, published 2013).
“And” between values parts separate entries of the source, which are not always exact repeats. Identical values can stand only once. Like-named read-outs stand apart in the source and are kept apart here. Marks after values point to notes of the source that are not given here.

Tested on: patients with ALS
[1] = 300 mg, through the end of the study
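Note: adverse event data gathered at every clinic visit and phone contact, after first study drug dose, in a blinded trial, counts of affected subjects.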

CCCN[C@@H]1CCc2nc(N)sc2C1 [dexpramipexole, (6R)-2-amino-4,5,6,7-tetrahydro-6-(propylamino)benzothiazole]
TEAE: Cough (300 mg, through Week 28): 5 (11%) N (%) | TEAE: Dehydration (300 mg, through Week 28): 3 (7%) N (%) | TEAE: Depression (300 mg, through Week 28): 5 (11%) N (%) | TEAE: Dizziness (300 mg, through Week 28): 3 (7%) N (%) | TEAE: Dysarthria (300 mg, through Week 28): 5 (11%) N (%) | TEAE: Dysphagia (300 mg, through Week 28): 4 (9%) N (%) | TEAE: Dyspnoea (300 mg, through Week 28): 6 (14%) N (%) | TEAE: Fall (300 mg, through Week 28): 11 (25%) N (%) | TEAE: Fatigue (300 mg, through Week 28): 2 (5%)^a N (%) and 2 (5%) N (%) | TEAE: Gastrointestinal Disorders (300 mg, through Week 28): 25 (57%) N (%) | TEAE: General Disorders and Administration Site Conditions (300 mg, through Week 28): 12 (27%) N (%) | TEAE: Headache (300 mg, through Week 28): 6 (14%) N (%) | TEAE: Hyperglycaemia (300 mg, through Week 28): 3 (7%) N (%) | TEAE: Infections and Infestations (300 mg, through Week 28): 17 (39%) N (%) | TEAE: Injury, Poisoning and Procedural Complication (300 mg, through Week 28): 12 (27%) N (%) | TEAE: Metabolism and Nutrition Disorders (300 mg, through Week 28): 8 (18%) N (%) | TEAE: Muscle contractions involuntary (300 mg, through Week 28): 2 (5%)^a N (%) and 2 (5%) N (%) | TEAE: Muscle spasticity (300 mg, through Week 28): 1 (2%) N (%) | TEAE: Musculoskeletal and Connective Tissue Disorders (300 mg, through Week 28): 19 (43%) N (%) | TEAE: Musculoskeletal pain (300 mg, through Week 28): 3 (7%) N (%) | TEAE: Nausea (300 mg, through Week 28): 3 (7%) N (%) | TEAE: Neck pain (300 mg, through Week 28): 4 (9%) N (%) | TEAE: Nervous System Disorders (300 mg, through Week 28): 18 (41%) N (%) | TEAE: Oedema peripheral (300 mg, through Week 28): 2 N (%) and 1 (2%) N (%) | TEAE: Pharyngolaryngeal pain (300 mg, through Week 28): 3 (7%) N (%) | TEAE: Pneumonia (300 mg, through Week 28): 1 (2%) N (%) | TEAE: Pruritus (300 mg, through Week 28): 0 N (%) | TEAE: Psychiatric Disorders (300 mg, through Week 28): 14 (32%) N (%) | TEAE: Rash (300 mg, through Week 28): 3 (7%) N (%) | TEAE: Respiratory failure (300 mg, through Week 28): 1 (2%) N (%) | TEAE: Respiratory, Thoracic and Mediastinal Disorders (300 mg, through Week 28): 18 (41%) N (%) | TEAE: Salivary hypersecretion (300 mg, through Week 28): 5 (11%) N (%) | TEAE: Sinusitis (300 mg, through Week 28): 5 (11%) N (%) | TEAE: Skin and Subcutaneous Tissue Disorders (300 mg, through Week 28): 8 (18%) N (%) | TEAE: Tachycardia (300 mg, through Week 28): 4 (9%) N (%) | TEAE: Upper respiratory tract infection (300 mg, through Week 28): 3 (7%) N (%) | TEAE: Urinary tract infection (300 mg, through Week 28): 4 (9%) N (%) | TEAE: Vomiting (300 mg, through Week 28): 0 N (%) | serious TEAE: Acute myocardial infarction (300 mg, through Week 28): 0 N (%) | serious TEAE: Atrial fibrillation (300 mg, through Week 28): 1 (2%) N (%) | serious TEAE: Blood and Lymphatic System Disorders (300 mg, through Week 28): 1 (2%) N (%) | serious TEAE: Cardiac Disorders (300 mg, through Week 28): 1 (2%) N (%) | serious TEAE: Cardiac failure congestive (300 mg, through Week 28): 0 N (%) | serious TEAE: Cholecystitis acute (300 mg, through Week 28): 1 (2%) N (%) | serious TEAE: Concussion (300 mg, through Week 28): 1 (2%) N (%) | serious TEAE: Disease progression (300 mg, through Week 28): 0 N (%) | serious TEAE: Dyspnoea (300 mg, through Week 28): 0 N (%) | serious TEAE: Fall (300 mg, through Week 28): 1 (2%) N (%) | serious TEAE: Gastrointestinal Disorders (300 mg, through Week 28): 0 N (%) | serious TEAE: General Disorders and Administration Site Conditions (300 mg, through Week 28): 0 N (%) | serious TEAE: Hepatobiliary Disorders (300 mg, through Week 28): 1 (2%) N (%) | serious TEAE: Ileus (300 mg, through Week 28): 0 N (%) | serious TEAE: Infections and Infestations (300 mg, through Week 28): 1 (2%) N (%) | serious TEAE: Injury, Poisoning and Procedural Complications (300 mg, through Week 28): 1 (2%) N (%) | serious TEAE: Neutropenia (300 mg, through Week 28): 1 (2%) N (%) | serious TEAE: Pneumonia (300 mg, through Week 28): 1 (2%) N (%) | serious TEAE: Pneumonia aspiration (300 mg, through Week 28): 1 (2%) N (%) | serious TEAE: Pneumonia bacterial (300 mg, through Week 28): 0 N (%) | serious TEAE: Pulmonary embolism (300 mg, through Week 28): 0 N (%) | serious TEAE: Respiratory distress (300 mg, through Week 28): 0 N (%) | serious TEAE: Respiratory failure (300 mg, through Week 28): 1 (2%) N (%) | serious TEAE: Respiratory, Thoracic and Mediastinal Disorders (300 mg, through Week 28): 2 (5%) N (%) | serious TEAE: Subdural haematoma (300 mg, through Week 28): 1 (2%) N (%) | serious TEAE: Sudden death (300 mg, through Week 28): 0 N (%) | serious TEAE: Viral infection (300 mg, through Week 28): 0 N (%) | ≧1 TEAE with an outcome of death (300 mg, through Week 28): 1 N (%) and 1 (2%) N (%) | ≧1 serious TEAE (including death) (300 mg, through Week 28): 5 N (%) and 5 (11%) N (%) | ≧1 serious treatment-related TEAE (300 mg, through Week 28): 1 (2%) N (%) | ≧1 severe TEAE (300 mg, through Week 28): 6 (14%) N (%) and 6 N (%) | Number of TEAEs [1]: 366 | Number of serious TEAEs [1]: 17 | Number of serious treatment-related TEAEs [1]: 2 | Number of severe TEAEs [1]: 23 | Number of treatment-related TEAEs [1]: 61 | Subjects with a TEAE with action taken of study drug discontinued [1]: 3 N (%) and 3 (7%) N (%) | subjects with TEAEs with an outcome of death (b230 count) [1]: 5 subjects | ≧1 TEAE with an outcome of death [1]: 4 N (%) and 4 (9%) N (%) | ≧1 serious TEAE (including death) [1]: 11 N (%) and 11 (25%) N (%) | ≧1 serious treatment-related TEAE [1]: 2 (5%) N (%) | ≧1 severe TEAE [1]: 13 N (%) and 13 (30%) N (%) | ≧1 treatment-related TEAE [1]: 18 (41%) N (%) | safety and tolerability (total daily doses of 50 mg and 300 mg, ALS subjects): safe and well tolerated
